Test system: isolated CE-1 enzyme from porcine liver
Test: CE-1 activity on short chain esters, 1H NMR
Format: biochemical
Conditions: 37° C.; for k: 26 μmol substrate, conversion over 60 min
From the text: To measure almost exclusively the contribution of carboxyl esterase activity from the CE-2 isoform, human breast cancer cells (MCF-7) were employed. These cells are known from literature to express CE-2 but not to express CE-1 (Byun et al, 2008, Cancer letters 266:238-48). A group of esters was investigated as substrates for CE-1, which contained different structural features. These consisted of esters of un-substituted acids (examples are ethyl acetate, ethyl butyrate, methyl butyrate), esters of acids substituted on C2 (examples are ethyl lactate and ethyl 2-acetoxy propanoate), esters of acids substituted on C3 (examples are ethyl 3-hydroxy butyrate and ethyl 3-acetoxy butanoate), esters of ring closed acids (example ethyl pyroglutamate), esters of di-acids (examples are diethyl succinate and dimethyl succinate), esters of tri-acids (example triethyl citrate), ethyl esters of beta-keto acids (example ethyl acetoacetate). Also esters with large alcohol groups and small acid groups were investigated. In this group, the acid part of the molecule was always acetate and different structural properties of the alcohol were investigated. These consisted of esters of un-substituted alcohols (examples ethyl acetate and butyl acetate), esters of branched chain alcohols (examples t-butyl acetate, ethyl 3-acetoxy butanoate and 2-acetoxy propionate), esters of aromatic alcohols (example benzyl acetate), esters of diols (example ethyleneglycol diacetate), esters of triols (example triacetin). […] Similarly, a group of esters which contained different structural features was investigated as substrates for CE-2. CE-2 substrates are described in the literature to consist of a small acid group and a larger alcohol group. All included esters were acetate esters (i.e. esters of acetic acid) in the interest of keeping the acid moiety the smallest possible. The acetate esters measured for CE-2 activity were therefore the same as those measured in the second group of possible substrates for CE-1.
The CE-1 experiments were performed with commercially available CE-1 from porcine liver. Individual samples of the substrates were all prepared the following way: 26 μmol was weighted in an eppendorf tube. 550 μl deuterated phosphate buffer (200 mM, pH 7.5) was added and the substrate was brought into solution by whirl mixing. The solution was transferred to a 5 mm NMR tube and inserted in the spectrometer at 37° C. A reference experiment was acquired on the substrate solution without enzyme after which 10 μl of an esterase stock solution (37 U/ml in deuterated phosphate buffer) was added in the top of the tube. The sample was mixed and returned to the spectrometer. A series of thermal 1D ^1H NMR experiments were recorded every 5 min for 60 min. The data were analysed with MNOVA software and measured as percentage conversion of substrate calculated to account for the amount of substrate converted over 60 min. The numbers are given in μmol/min.

k [µmol/min]	SMILES	k (μmol/min), acetate ester (hydrolysis of the acetate ester function, 60 min) [µmol/min]	k (μmol/min), ethyl ester (hydrolysis of the ethyl ester function, 60 min) [µmol/min]
0.07	CC(=O)OCc1ccccc1 [Benzyl acetate]		
0.02	CC(=O)OCC(COC(C)=O)OC(C)=O [Tri-acetin]		
	CCOC(=O)CC(C)OC(C)=O (stereo not shown) [ethyl 3-acetoxy butanoate]	0	0.08

Reference: patent publication US20150133341A1, “Intra-Operative Cancer Diagnosis Based on a Hyperpolarized Marker” (ALBEDA INNOVATIONS APS, priority 2012, published 2015)
